The values that follow come from patent US20210121437A1, “[…] AGENTS […] FLAVONOID DERIVATIVES TARGETING KINASES, SIRTUINS AND ONCOGENIC AGENTS FOR THE TREATMENT OF MULTIPLE MYELOMA, LYMPHOMA, AND […]” (priority 2015, published 2021).

The term IC50 denotes the midpoint of a concentration-inhibition curve.

In data set [1] the test system is 60 cancer cell line panel. The note with it: US National Cancer Institute 60 cancer cell line panel; cited from earlier work.
In the next data set the test system is Normal Bone marrow. Kind of data set: anticancer cell proliferation assay (WST-1). Format: cell-based. To be noted: Table 4. The method, then: (§1) Bioactivity of the above-described compounds has been verified by an anticancer cell proliferation assay using the WST-1 (4-[3-(4-iodophenyl)-2-(4-nitrophenyl)-2H-5-tetrazoliol-1, 3-benzene disulfonate) colorimetric assay by Roche Life Sciences®. Anticancer activity was tested against several standard cancer cell lines including brain, breast, Kaposi sarcoma, leukemia, lung, melanoma, tenosynovial giant cell tumor, ovarian, pancreatic, colon and prostate cancer. Cells were trypsinized and plated into 96 well plates in 50 μl of media and incubated overnight. The next day approximately 18 hours after plating, 50 μl of media containing the required flavonoid-based pharmaceutical composition was added per well. Cells were plated at a density so that 72 hours post drug addition, the cells will be in log phase (500-2000 cells/well). The compounds and extracts were solubilized in Dimethyl sulfoxide (DMSO). The cells are allowed to proliferate for 72 hours 37° C. in humidified atmosphere of 5% CO2. The experiment is terminated using WST-1 (Roche®) 10 μl per well and absorbance is read at 450 nm/690 nm. The effect of drugs on growth is assessed as percent of cell viability. The IC50 values were determined from the extract dose versus control growth curves using Graphpad Prism® software. All experiments were carried out in duplicate and the mean results determined.
A general note: Tetrazolium dyes change colour on reduction, which living cells bring about.

The next data set addresses T1, FLT3(D835Y) (Homo sapiens, UniProt P36888, D835Y).
T1 construct: full-length constructs were used for small, single domain kinases, and catalytic domain constructs for large multi-domain kinases; T7 phage fusion (most assays) or DNA tag for qPCR (HEK-293-made kinases); made in house
It is filed as binding. The note with it: Table 4; read-out: IC50 Kinases FLT3-D835Y. As for the experimental part:
(§2) Cannabis flavonoids and their analogs were subjected to kinase inhibition assay. The compounds were first screened at a single concentration of 10 μM in the primary assay. […] To determine the kd or IC50 values, competition binding assays were established, authenticated and executed as described previously. […] See also, Karaman et al., “A Quantitative Analysis Of Kinase Inhibitor Selectivity”, Nat. Biotechnol. […] For most assays, kinases were fused to T7 phage strains (Fabian, supra) and for the other assays, kinases were produced in HEK-293 cells after which they were tagged with DNA for quantitative PCR detection. In general, full-length constructs were used for small, single domain kinases, and catalytic domain constructs for large multi-domain kinases. […] The liganded beads were blocked with excess biotin and washed with blocking buffer (SeaBlock (Pierce), 1% BSA, 0.05% Tween 20, 1 mM DTT) to remove unbound ligand and to reduce non-specific phage binding. […] All reactions were performed in polypropylene 384-well plates in a final volume of 0.04 ml. […] The kinase concentration in the eluates was measured by quantitative PCR. An illustration of the kinase interaction process is presented below. Kd/IC50 values were determined using a standard dose response curve using the hill equation. Curves were fitted using a non-linear least square fit with the Levenberg-Marquardt algorithm.

Data set [2] has as its system THP-1 Acute Myeloid Leukemia cell line. In words: anticancer cell proliferation assay (WST-1). It is filed as cell-based. To be noted: Table 4; read-out: IC50 Acute Myeloid Leukemia cell lines THP-1. As for the experimental part: as §1, with “Anticancer” for “Bioactivity of the above-described compounds has been verified by an anticancer cell proliferation assay using the WST-1 (4-[3-(4-iodophenyl)-2-(4-nitrophenyl)-2H-5-tetrazoliol-1, 3-benzene disulfonate) colorimetric assay by Roche Life Sciences®. Anticancer”

Data set [3] deals with KMS-11 (Multiple myeloma). In words: anticancer cell proliferation assay (WST-1). It is filed as cell-based. The note with it: 72 hours. As for the experimental part:
as §1

The next data set concerns MM.1S (Multiple Myeloma). Kind of data set: anticancer cell proliferation assay (WST-1). Format: cell-based. The note with it: 72 hours. The method, then: as §1
Data set [4] deals with human pancreatic cancer xenograft CFPAC-1 cells. Kind of data set: human pancreatic cancer xenograft CFPAC-1 in scid mice. To be noted: CFPAC-1 xenograft. It is filed as in vivo. From the text: The results of the anticancer activity are presented in Tables 3 and 4 (above) and in FIG. 6, Hela cells shown at (A) and CMK cells at (B) and MV4-11 and MOLT-14 acute myeloid leukemia cells.

In the next data set the target is T2, FLT3(ITD) (Homo sapiens, UniProt P36888).
T2 construct: In general, full-length constructs were used for small, single domain kinases, and catalytic domain constructs for large multi-domain kinases; fused on or other part: T7 phage fusion or DNA tag for qPCR detection
Format: binding. To be noted: Table 1. As for the experimental part: as §2

The target of a further data set is T3, TXK (Homo sapiens, UniProt P42681).
T3 construct: T7 phage fusion (most assays) or DNA tag for qPCR (HEK-293-made kinases); made in house
T3 sequence (P42681 whole entry, the tested form may be a part): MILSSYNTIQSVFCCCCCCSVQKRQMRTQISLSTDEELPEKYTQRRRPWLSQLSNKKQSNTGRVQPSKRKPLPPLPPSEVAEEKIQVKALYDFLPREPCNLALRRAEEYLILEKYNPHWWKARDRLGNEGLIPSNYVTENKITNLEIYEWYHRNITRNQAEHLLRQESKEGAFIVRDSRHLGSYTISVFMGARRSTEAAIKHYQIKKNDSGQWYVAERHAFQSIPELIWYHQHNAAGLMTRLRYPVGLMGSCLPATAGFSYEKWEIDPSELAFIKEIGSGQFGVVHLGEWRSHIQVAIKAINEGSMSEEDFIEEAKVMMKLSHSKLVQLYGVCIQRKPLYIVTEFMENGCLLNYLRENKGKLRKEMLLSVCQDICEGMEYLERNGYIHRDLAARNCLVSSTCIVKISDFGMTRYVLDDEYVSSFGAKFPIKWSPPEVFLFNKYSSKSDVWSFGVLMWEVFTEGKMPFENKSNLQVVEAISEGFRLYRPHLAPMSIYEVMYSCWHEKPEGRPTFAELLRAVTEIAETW
In words: kinase competition binding assay. To be noted: Table 1. The method, then:
(§3) Cannabis flavonoids and their analogs were subjected to kinase inhibition assay. The compounds were first screened at a single concentration of 10 μM in the primary assay. […]. To determine the kd or IC50 values, competition binding assays were established, authenticated and executed as described previously. Fabian et al., “A Small Molecule-Kinase Interaction Map For Clinical Kinase Inhibitors.”, Nat Biotechnol, 23(3):329-36, Epub (2005). See also, Karaman et al., “A Quantitative Analysis Of Kinase Inhibitor Selectivity”, Nat. Biotechnol. […] For most assays, kinases were fused to T7 phage strains (Fabian, supra) and for the other assays, kinases were produced in HEK-293 cells after which they were tagged with DNA for quantitative PCR detection. In general, full-length constructs were used for small, single domain kinases, and catalytic domain constructs for large multi-domain kinases. The binding assays utilized streptavidin-coated magnetic beads treated with biotinylated small molecule ligands for 30 minutes at room temperature which generated affinity resins for the kinase assays. The liganded beads were blocked with excess biotin and washed with blocking buffer (SeaBlock (Pierce), 1% BSA, 0.05% Tween 20, 1 mM DTT) to remove unbound ligand and to reduce non-specific phage binding. […] Test compounds were prepared as 40× stocks in 100% DMSO and diluted directly into the assay (Final DMSO concentration=2.5%). All reactions were performed in polypropylene 384-well plates in a final volume of 0.04 ml. […] The beads were then re-suspended in elution buffer (1×PBS, 0.05% Tween 20, 0.5 μM non-biotinylated affinity ligand) and incubated at room temperature with shaking for 30 minutes. The kinase concentration in the eluates was measured by quantitative PCR. An illustration of the kinase interaction process is presented below. Kd/IC50 values were determined using a standard dose response curve using the hill equation. Curves were fitted using a non-linear least square fit with the Levenberg-Marquardt algorithm.

Another data set has as its target T4, MELK (Homo sapiens, UniProt Q14680).
T4 construct: full-length constructs were used for small, single domain kinases, and catalytic domain constructs for large multi-domain kinases; T7 phage fusion (most assays) or DNA tag for qPCR (HEK-293-made kinases); made in house
In words: kinase competition binding assay. The note with it: Table 1. The method, then:
as §3

The target of the next data set is T5, DRAK2 (Homo sapiens, UniProt O94768).
T5 construct: full-length constructs were used for small, single domain kinases, and catalytic domain constructs for large multi-domain kinases; T7 phage fusion (most assays) or DNA tag for qPCR (HEK-293-made kinases); made in house
T5 sequence (O94768 whole entry, the tested form may be a part): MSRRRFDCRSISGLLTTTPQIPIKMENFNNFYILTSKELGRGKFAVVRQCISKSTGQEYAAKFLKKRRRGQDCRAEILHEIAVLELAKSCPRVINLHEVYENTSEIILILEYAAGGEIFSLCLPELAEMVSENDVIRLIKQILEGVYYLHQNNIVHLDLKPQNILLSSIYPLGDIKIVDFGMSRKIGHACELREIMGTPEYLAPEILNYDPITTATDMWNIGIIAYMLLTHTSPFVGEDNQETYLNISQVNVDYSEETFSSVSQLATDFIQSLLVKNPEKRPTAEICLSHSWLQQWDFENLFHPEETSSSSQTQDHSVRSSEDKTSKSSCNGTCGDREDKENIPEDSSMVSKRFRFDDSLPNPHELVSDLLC
Kind of data set: kinase competition binding assay. The note with it: Table 1. The method, then: as §3

The target of the next data set is T6, c-SRC (Homo sapiens, UniProt P12931).
T6 construct: T7 phage fusion (most assays) or DNA tag for qPCR (HEK-293-made kinases); made in house
Kind of data set: kinase competition binding assay. To be noted: Table 1. The method, then: as §3

For the next data set, the target named is T7, PIP5K1A (Homo sapiens, UniProt Q99755).
T7 construct: T7 phage fusion (most assays) or DNA tag for qPCR (HEK-293-made kinases); made in house
Kind of data set: kinase competition binding assay. The note with it: Table 1. As for the experimental part:
as §3

The next data set addresses T8, PDGFRa (Homo sapiens, UniProt P16234).
T8 construct: catalytic domain constructs for large multi-domain kinases; T7 phage fusion (most assays) or DNA tag for qPCR (HEK-293-made kinases); made in house
In words: kinase competition binding assay. To be noted: Table 1. The method, then:
as §3

In the next data set the target is T9, FLT3(D835V) (Homo sapiens, UniProt P36888, D835V).
T9 construct: full-length constructs were used for small, single domain kinases, and catalytic domain constructs for large multi-domain kinases; T7 phage fusion (most assays) or DNA tag for qPCR (HEK-293-made kinases); made in house
Kind of data set: kinase competition binding assay. To be noted: Table 1. As for the experimental part:
as §3

The target of the next data set is T10, MNK2 (Homo sapiens, UniProt Q9HBH9).
T10 construct: T7 phage fusion (most assays) or DNA tag for qPCR (HEK-293-made kinases); made in house
T10 sequence (Q9HBH9 whole entry, the tested form may be a part): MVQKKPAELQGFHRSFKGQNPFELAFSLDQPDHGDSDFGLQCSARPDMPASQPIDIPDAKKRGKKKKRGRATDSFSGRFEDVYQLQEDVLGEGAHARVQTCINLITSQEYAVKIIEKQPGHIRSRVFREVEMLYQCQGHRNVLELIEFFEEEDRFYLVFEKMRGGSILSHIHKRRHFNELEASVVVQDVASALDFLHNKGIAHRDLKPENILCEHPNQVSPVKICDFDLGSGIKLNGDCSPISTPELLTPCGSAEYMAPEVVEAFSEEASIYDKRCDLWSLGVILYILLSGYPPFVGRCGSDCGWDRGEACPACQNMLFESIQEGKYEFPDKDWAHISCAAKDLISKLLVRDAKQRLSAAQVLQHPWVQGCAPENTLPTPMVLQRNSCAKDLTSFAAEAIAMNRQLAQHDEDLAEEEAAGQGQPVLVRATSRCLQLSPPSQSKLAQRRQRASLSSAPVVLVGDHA
Kind of data set: kinase competition binding assay. The note with it: Table 1. The method, then: as §3

In a further data set the target is T11, PDGFRa(T6741) (Homo sapiens, UniProt P16234, T674I).
T11 construct: catalytic domain constructs for large multi-domain kinases; T7 phage fusion (most assays) or DNA tag for qPCR (HEK-293-made kinases); made in house
T11 sequence (P16234 593-954 T674I limits assumed): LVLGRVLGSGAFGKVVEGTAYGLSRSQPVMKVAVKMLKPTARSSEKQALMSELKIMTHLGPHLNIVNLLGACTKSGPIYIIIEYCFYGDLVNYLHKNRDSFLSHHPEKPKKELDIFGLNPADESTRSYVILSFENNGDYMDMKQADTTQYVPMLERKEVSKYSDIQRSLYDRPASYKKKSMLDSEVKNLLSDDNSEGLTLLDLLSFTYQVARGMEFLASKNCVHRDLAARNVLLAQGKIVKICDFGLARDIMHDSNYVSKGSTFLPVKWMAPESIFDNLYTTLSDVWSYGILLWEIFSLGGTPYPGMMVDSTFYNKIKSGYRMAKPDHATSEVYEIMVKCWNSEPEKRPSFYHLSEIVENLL
In words: kinase competition binding assay. To be noted: Table 1. The method, then: as §3

The target in another data set is T12, PIK4CB (Homo sapiens, UniProt Q9UBF8).
T12 construct: T7 phage fusion (most assays) or DNA tag for qPCR (HEK-293-made kinases); made in house
Kind of data set: kinase competition binding assay. To be noted: Table 1. The method, then: as §3

The next data set addresses T13, PIK3CA(1800L) (Homo sapiens, UniProt P42336, I800L).
T13 construct: T7 phage fusion (most assays) or DNA tag for qPCR (HEK-293-made kinases); made in house
Kind of data set: kinase competition binding assay. The note with it: Table 1. The method, then: as §3

For a further data set, the target named is T14, JAK1 (Homo sapiens, UniProt P23458).
T14 construct: full-length constructs were used for small, single domain kinases, and catalytic domain constructs for large multi-domain kinases; T7 phage fusion (most assays) or DNA tag for qPCR (HEK-293-made kinases); made in house
T14 sequence (P23458 whole entry, the tested form may be a part): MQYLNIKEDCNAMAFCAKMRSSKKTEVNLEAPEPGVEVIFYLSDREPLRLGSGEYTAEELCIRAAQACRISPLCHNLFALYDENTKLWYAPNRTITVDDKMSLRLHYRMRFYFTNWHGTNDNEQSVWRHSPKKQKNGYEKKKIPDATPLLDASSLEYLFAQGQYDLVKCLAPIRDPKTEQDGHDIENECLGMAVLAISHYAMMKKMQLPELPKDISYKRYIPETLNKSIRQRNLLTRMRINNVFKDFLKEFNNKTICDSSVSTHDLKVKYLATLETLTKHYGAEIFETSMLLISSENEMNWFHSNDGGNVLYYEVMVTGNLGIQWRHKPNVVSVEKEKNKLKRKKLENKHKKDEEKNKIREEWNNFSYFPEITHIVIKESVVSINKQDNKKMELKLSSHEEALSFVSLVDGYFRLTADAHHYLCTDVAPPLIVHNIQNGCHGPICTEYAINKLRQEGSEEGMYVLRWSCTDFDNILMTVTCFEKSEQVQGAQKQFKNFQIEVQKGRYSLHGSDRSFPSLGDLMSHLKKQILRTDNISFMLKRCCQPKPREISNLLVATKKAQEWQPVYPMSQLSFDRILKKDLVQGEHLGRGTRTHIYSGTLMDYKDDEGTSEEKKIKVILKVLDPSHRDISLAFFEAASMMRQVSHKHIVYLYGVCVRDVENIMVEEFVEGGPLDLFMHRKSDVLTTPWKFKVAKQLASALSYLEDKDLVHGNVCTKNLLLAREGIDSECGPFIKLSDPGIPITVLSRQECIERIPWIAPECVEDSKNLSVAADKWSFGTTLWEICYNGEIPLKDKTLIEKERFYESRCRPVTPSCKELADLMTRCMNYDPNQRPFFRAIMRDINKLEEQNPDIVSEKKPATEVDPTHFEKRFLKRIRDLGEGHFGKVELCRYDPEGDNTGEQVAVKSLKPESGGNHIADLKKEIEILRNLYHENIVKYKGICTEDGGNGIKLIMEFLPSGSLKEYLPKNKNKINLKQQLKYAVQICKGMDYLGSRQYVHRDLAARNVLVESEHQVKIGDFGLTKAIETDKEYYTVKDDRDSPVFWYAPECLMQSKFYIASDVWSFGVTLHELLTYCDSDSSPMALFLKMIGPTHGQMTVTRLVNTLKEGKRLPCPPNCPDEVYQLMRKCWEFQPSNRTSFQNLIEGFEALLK
Kind of data set: kinase competition binding assay. The note with it: Table 1. The method, then: as §3

In another data set the target is T15, MEK5 (Homo sapiens, UniProt Q13163).
T15 construct: T7 phage fusion (most assays) or DNA tag for qPCR (HEK-293-made kinases); made in house
In words: kinase competition binding assay. The note with it: Table 1. As for the experimental part:
as §3

Another data set deals with T16, BIKE (Homo sapiens, UniProt Q9NSY1).
T16 construct: full-length constructs were used for small, single domain kinases, and catalytic domain constructs for large multi-domain kinases; T7 phage fusion (most assays) or DNA tag for qPCR (HEK-293-made kinases); made in house
Kind of data set: kinase competition binding assay. To be noted: Table 1. As for the experimental part: as §3

A further data set concerns the target T17, JAK3 (Homo sapiens, UniProt P52333).
T17 construct: full-length constructs were used for small, single domain kinases, and catalytic domain constructs for large multi-domain kinases; T7 phage fusion (most assays) or DNA tag for qPCR (HEK-293-made kinases); made in house
In words: kinase competition binding assay. To be noted: Table 1. The method, then:
as §3

A further data set concerns the target T18, JAK2 (Homo sapiens, UniProt O60674).
T18 construct: full-length constructs were used for small, single domain kinases, and catalytic domain constructs for large multi-domain kinases; T7 phage fusion (most assays) or DNA tag for qPCR (HEK-293-made kinases); made in house
In words: kinase competition binding assay. The note with it: Table 1. As for the experimental part: as §3

The next data set concerns the target T19, SRC (Homo sapiens, UniProt P12931).
T19 construct: T7 phage fusion (most assays) or DNA tag for qPCR (HEK-293-made kinases); made in house
Kind of data set: kinase competition binding assay. To be noted: Table 1. The method, then: as §3

For another data set, the target named is T20, Yes/yes1 (Homo sapiens, UniProt P07947).
T20 construct: T7 phage fusion (most assays) or DNA tag for qPCR (HEK-293-made kinases); made in house
Kind of data set: kinase competition binding assay. To be noted: Table 1. The method, then:
as §3

A further data set relates to MV4-11 (Leukemia). Kind of data set: anticancer cell proliferation assay (WST-1). It is filed as cell-based. The note with it: Table 3; 72 hours, WST-1; read-out: IC50 MV4-11 (Leukemia). As for the experimental part:
as §1, with “Anticancer” for “Bioactivity of the above-described compounds has been verified by an anticancer cell proliferation assay using the WST-1 (4-[3-(4-iodophenyl)-2-(4-nitrophenyl)-2H-5-tetrazoliol-1, 3-benzene disulfonate) colorimetric assay by Roche Life Sciences®. Anticancer”

T17 sequence (P52333 whole entry, the tested form may be a part): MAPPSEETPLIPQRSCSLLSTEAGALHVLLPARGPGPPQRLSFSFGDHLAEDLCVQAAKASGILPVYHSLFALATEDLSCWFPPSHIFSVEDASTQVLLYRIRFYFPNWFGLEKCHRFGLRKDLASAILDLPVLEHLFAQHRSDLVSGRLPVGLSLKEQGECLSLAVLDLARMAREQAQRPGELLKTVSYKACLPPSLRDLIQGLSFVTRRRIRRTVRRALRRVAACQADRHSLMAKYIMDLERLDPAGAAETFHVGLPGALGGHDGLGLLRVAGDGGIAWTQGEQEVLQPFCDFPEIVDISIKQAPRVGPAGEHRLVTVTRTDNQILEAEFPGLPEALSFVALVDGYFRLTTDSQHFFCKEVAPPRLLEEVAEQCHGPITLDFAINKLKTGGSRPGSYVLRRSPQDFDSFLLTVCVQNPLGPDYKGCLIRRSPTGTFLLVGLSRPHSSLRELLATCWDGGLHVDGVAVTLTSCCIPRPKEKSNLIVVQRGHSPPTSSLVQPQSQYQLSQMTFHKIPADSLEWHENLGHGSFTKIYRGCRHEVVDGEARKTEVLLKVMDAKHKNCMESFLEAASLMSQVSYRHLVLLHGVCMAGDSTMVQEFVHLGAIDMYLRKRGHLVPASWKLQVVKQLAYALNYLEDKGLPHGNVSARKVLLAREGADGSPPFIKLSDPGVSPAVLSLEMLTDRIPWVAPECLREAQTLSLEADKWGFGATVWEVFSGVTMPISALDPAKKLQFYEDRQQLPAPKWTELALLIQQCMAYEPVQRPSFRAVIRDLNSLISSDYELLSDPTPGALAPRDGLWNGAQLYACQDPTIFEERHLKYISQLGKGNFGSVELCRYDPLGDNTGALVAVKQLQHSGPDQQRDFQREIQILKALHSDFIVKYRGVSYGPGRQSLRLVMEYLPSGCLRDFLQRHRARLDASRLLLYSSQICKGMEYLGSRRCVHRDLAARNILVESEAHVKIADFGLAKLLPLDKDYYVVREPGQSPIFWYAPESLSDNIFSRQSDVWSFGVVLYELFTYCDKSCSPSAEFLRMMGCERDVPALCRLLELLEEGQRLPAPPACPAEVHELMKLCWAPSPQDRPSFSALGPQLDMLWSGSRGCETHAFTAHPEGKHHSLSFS
T13 sequence (P42336 whole entry I800L, the tested form may be a part): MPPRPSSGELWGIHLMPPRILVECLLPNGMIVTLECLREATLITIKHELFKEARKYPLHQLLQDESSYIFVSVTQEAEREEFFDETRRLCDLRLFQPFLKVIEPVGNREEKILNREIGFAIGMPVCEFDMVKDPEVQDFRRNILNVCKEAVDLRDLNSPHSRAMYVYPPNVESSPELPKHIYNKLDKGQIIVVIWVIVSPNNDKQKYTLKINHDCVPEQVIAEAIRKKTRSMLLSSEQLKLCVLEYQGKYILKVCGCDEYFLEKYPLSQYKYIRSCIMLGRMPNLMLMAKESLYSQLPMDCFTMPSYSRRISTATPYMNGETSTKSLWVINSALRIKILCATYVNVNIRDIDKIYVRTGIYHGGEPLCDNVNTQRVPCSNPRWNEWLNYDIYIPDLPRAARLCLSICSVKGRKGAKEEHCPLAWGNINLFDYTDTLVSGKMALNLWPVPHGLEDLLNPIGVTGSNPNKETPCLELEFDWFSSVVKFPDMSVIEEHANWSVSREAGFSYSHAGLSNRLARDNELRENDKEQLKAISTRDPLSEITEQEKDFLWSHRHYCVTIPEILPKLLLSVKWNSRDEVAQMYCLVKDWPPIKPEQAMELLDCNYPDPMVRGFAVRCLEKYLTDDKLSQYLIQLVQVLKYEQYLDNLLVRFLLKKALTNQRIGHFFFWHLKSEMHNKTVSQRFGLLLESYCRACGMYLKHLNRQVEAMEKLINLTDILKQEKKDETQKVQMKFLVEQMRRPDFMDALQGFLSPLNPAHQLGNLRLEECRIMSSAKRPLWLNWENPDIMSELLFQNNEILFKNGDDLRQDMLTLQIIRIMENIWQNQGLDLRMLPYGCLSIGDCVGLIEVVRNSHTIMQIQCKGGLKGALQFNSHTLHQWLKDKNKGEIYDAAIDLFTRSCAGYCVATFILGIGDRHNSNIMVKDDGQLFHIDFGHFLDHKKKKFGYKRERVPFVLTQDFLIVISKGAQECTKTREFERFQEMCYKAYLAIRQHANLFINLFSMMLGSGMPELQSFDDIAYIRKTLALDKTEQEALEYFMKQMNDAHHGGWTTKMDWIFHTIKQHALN

As for `COc1cc(-c2cc(=O)c3c(O)c(CC=C(C)C)c(O)cc3o2)ccc1O` [cannflavin B], in data set [1], the “cytotoxicity against cancer cells” value is on record as “not cytotoxic”.
Take `COc1ccc(-c2cc(=O)c3c(O)cc(O)cc3o2)cc1` [FBLGS-73]: the IC50 with Normal Bone marrow was over 100 µM; on FLT3(D835Y), 49 nM; in [2], over 100 µM.
As to `COc1cc(-c2cc(=O)c3c(O)cc(O)c(CC=C(C)C)c3o2)ccc1O` [FBL-03G, Caflanone], the IC50 in [3] was 64.7 nM; with MM.1S (Multiple Myeloma), 950 nM; on FLT3(ITD), 38.2 nM; at TXK it was 164 nM; at MELK it was 88.9 nM; at DRAK2 it was 1400 nM. Besides, the concentration for half-maximal inhibition (IC50) at c-SRC was 1100 nM; at PIP5K1A, 320 nM; at PDGFRa it was 698 nM; at FLT3(D835V), 12.5 nM; at MNK2 it was 549 nM; on PDGFRa(T6741) it was 1670 nM. Further, the IC50 is 136 nM on PIK4CB; 125 nM on PIK3CA(1800L); 644 nM on JAK1; 190 nM on MEK5; 81 nM on BIKE; 5.58 nM on JAK3. Further, the IC50 at JAK2 came to 1850 nM; at SRC, 1700 nM; at Yes/yes1, 294 nM; in the data set on MV4-11 (Leukemia), 38.6 nM. Also, in [4], the “inhibition of tumor compared to the control” value is given as “significant inhibition of tumor”.
